In patent publication US20030195242A1, “Use of Cox-2 inhibitors to prevent recurrences of herpesvirus infections” (priority 2002, published 2003):

Assays:
Type in all cases: in vivo, BALB/c mice
McKrae strain of HSV-1 [1] = assay: Heat-stress reactivation of latent HSV-1 in mice: infectious virus on ocular surface swabs (ASA)
Method: The McKrae strain of HSV-1 was propagated in Vero cells (ATCC No. CCL-81, American Type Culture Collection, Manassass, Va.), titered by viral plaque assay, and stored at −70° C. until used to infect animals.
(§1) Ocular swabs were immersed in 0.2 ml of complete tissue culture medium consisting of RPMI-1640, 10% fetal bovine serum (FBS), and an antibiotic-antimycotic mixture (Life Technologies, Grand Island, N.Y.). The swabs in culture medium were stored at 4° C. until testing by plaque assay. The determination of infectious virus in the cornea and in the trigeminal ganglia of animals were performed in a similar manner. Pairs of corneas and ganglia from individual mice were placed in separate tubes in 0.2 ml of complete medium, homogenized, clarified by centrifugation at 14,000×g for 5 minutes and the supernatant tested for infectious virus on Vero cells.
(§2) Male BALB/c strain mice (The Jackson Laboratory, Bar Harbor, Me.) were infected at 5 weeks of age by topical application of 5×10^5 plaque forming units of the McKrae strain HSV-1 following superficial scratching of the cornea. Documentation of the success of viral infection was determined by culturing ocular swabs taken on days 3 and 5 after infection. Animals without infectious virus on both days 3 and 5 in both eyes were excluded from use in these experiments. Thirty days after infection the eyes were swabbed to establish that infectious virus was no longer present on the ocular surface. Groups of uninfected age and sex matched mice were used as control animals in this study.
(§3) To test the effect of acetylsalicylic acid (ASA) on reactivation of HSV induced by heat stress, two sets of experiments were performed. In one set, groups of mice with latent HSV were immersed in 43° C. water up to their necks for 10 minutes. Following the hyperthermic stress, the animals were dried and given an intraperitoneal (IP) injection of 0.1 mg of ASA (Sigma Chemical Co., St. Louis, Mo.) suspended in 0.1 ml saline. At 8 and 16 hours after hyperthermia, the animals were again treated with ASA. Control mice were given IP injections of saline on the same schedule. At 24 hr after hyperthermic stress, the eyes were swabbed, the mice were sacrificed, and the corneas and trigeminal ganglia analyzed for infectious virus and viral DNA.
(§4) In a second experiment, groups of mice were treated IP for 3 days prior to hyperthermic stress at 8 hr intervals on each of the 3 days. The animals were then heat stressed, treated immediately after stress with ASA, and treated at 8 and 16 hr after hyperthermic stress. Control mice were given IP injections of saline on the same schedule. Two additional groups of mice were prophylactically treated by oral administration of 0.1 mg ASA or saline on the same dose schedule. In each experiment, animals were subdivided into those which were hyperthermically stressed and those which were not stressed. As above, the eyes of these animals were swabbed at 24 hr after stress and then sacrificed for analysis of infectious virus and viral DNA in their corneas and trigeminal ganglia.
(§5) Control mice for each of these experiments included animals which were latent for HSV-1 but which were not heat stressed. Subsets of this control group included animals placebo-treated and animals treated with ASA. Two additional control groups of animals were those which were not latent for HSV-1, but which were either treated with placebo or ASA on the schedules outlined above.

McKrae strain of HSV-1 [2] = assay: Heat-stress reactivation of latent HSV-1 in mice: infectious virus in cornea and trigeminal ganglia homogenates (ASA)
Method: as §1, §2, §3, §4, §5

McKrae strain of HSV-1 [3] = assay: Quantitation of viral DNA by PCR in cornea and trigeminal ganglion of latently infected mice (ASA); conditions: pooled from six mice
Description: Quantitation of viral DNA in tissue homogenates was made using the polymerase chain reaction (PCR), as previously reported. See B. M. Gebhardt et al., “9-(4-hydroxybutyl)-N^2-phenylguanine (HBPG), a thymidine kinase inhibitor, suppresses herpes virus reactivation in mice,” Antiviral Res., vol. 30, pp. 87-94 (1996); and J. M. Hill et al., “Quantitative analysis of polymerase chain reaction products by dot blot,” Analyt. Biochem., vol. 235, pp. 44-48 (1996). In brief, the procedure involves comparing DNA extracted from experimental and control tissue samples containing viral DNA, and performing serial dilutions with DNA from homologous tissue homogenates of uninfected animals. Using a log dilution series and previously determined quantities of viral DNA, it is possible to obtain a series of curves which permit the sensitive and reproducible determination of viral DNA in experimental samples. The sensitivity of this procedure permits the determination of differences of 100 viral genome equivalents per sample. In each experimental series, standard curves were conducted along with the analyses of the tissue homogenates from experimental (drug treated) and control (placebo treated) mice.
as §3, §4

McKrae strain of HSV-1 [4] = assay: Heat-stress reactivation of latent HSV-1 in mice: infectious virus on the ocular surface (celecoxib); conditions: not stressed
Description: (§6) To test the effect of a selective COX-2 inhibitor on recurrence of HSV, female BALB/c mice (The Jackson Laboratory, Bar Harbor, Me.) at 4 weeks of age were used. The strain of HSV and the method of propagation were as described in Example 1.
(§7) The mice were infected by the topical ocular route, and the establishment of a corneal infection was documented by slit lamp examination and ocular swabs on day 3 after infection. Only animals which were successfully infected were retained for use in these experiments. Thirty days after infection, groups of 15 latently infected and 15 uninfected mice were treated with the COX 2 inhibitor, celecoxib (G. D. Searle & Co., Skokie, Ill.). The dose of celecoxib that would inhibit viral reactivation was determined in a preliminary experiment in which groups of mice were injected intraperitoneally with 0.1, 0.5, 1.0, and 5.0 mg of celecoxib four times daily. The mice were treated one day before heat stress and the day of the heat stress. […] This dosage was used in all subsequent experiments.
(§8) Two days prior to hyperthermic stress, uninfected mice and latently infected mice were treated four times daily with celecoxib at a concentration of 0.5 mg per treatment. […] Units of Infectious virus were recorded as units of cytopathic effect over a period of seven days. […] The units of cytopathic effect were recorded over a seven day incubation period. […]

McKrae strain of HSV-1 [5] = assay: Heat-stress reactivation of latent HSV-1 in mice: infectious virus in the trigeminal ganglia (celecoxib); conditions: not stressed
Description: as §6, §7, §8

McKrae strain of HSV-1 [6] = assay: Preliminary dose-finding experiment for inhibition of viral reactivation by celecoxib; conditions: IP four times daily; 0.1, 0.5, 1.0 and 5.0 mg tested; one day before and day of heat stress
Method: as §7

[7] = Experiment 1, heat stressed, ASA 0.1 mg IP after stress and at 8 and 16 h, swabs 24 hrs after heat stress
[8] = Experiment 1, latent mice not stressed, ASA-treated
[9] = Experiment 2, heat stressed, ASA 0.1 mg IP after stress and at 8 and 16 h, swabs 24 hrs after heat stress
[10] = Experiment 2, latent mice not stressed, ASA-treated
[11] = Experiment 3, heat stressed, ASA 0.1 mg IP after stress and at 8 and 16 h, swabs 24 hrs after heat stress
[12] = Experiment 3, latent mice not stressed, ASA-treated
[13] = Cornea, ASA from time of hyperthermic stress, 24 h after stress
[14] = Prophylactic ASA IP, 3 days prior to stress, cornea, 24 hrs after stress
[15] = Prophylactic ASA IP, 3 days prior to stress, trigeminal ganglia, 24 hrs after stress
[16] = Prophylactic ASA oral gavage 0.1 mg, 3 days prior to stress, cornea, 24 hrs after stress
[17] = Prophylactic ASA oral gavage 0.1 mg, 3 days prior to stress, trigeminal ganglia, 24 hrs after stress
[18] = Trigeminal ganglia, ASA from time of hyperthermic stress, 24 h after stress
[19] = 0.5 mg celecoxib four times daily IP for two days
[20] = 0.5 mg celecoxib four times daily orally for two days

CC(=O)Oc1ccccc1C(=O)O [ASA, acetylsalicylic acid]
Levels of infectious virus in ocular tear film compared to placebo-treated mice (McKrae strain of HSV-1 [1]; ASA IP or orally for three days prior to hyperthermic stimulus, data not shown): significantly lower
Infectious Virus (no. positive/total), ocular surface swabs (McKrae strain of HSV-1 [1]; [7]): 2/12
Percent of ocular swab cultures which contained virus (McKrae strain of HSV-1 [1]; [7]): (17%)
Infectious Virus (no. positive/total), ocular surface swabs (McKrae strain of HSV-1 [1]; [8]): 0/10
Percent of ocular swab cultures which contained virus (McKrae strain of HSV-1 [1]; [8]): (0%)
Infectious Virus (no. positive/total), ocular surface swabs (McKrae strain of HSV-1 [1]; [9]): 3/12
Percent of ocular swab cultures which contained virus (McKrae strain of HSV-1 [1]; [9]): (25%)
Infectious Virus (no. positive/total), ocular surface swabs (McKrae strain of HSV-1 [1]; [10]): 0/8
Percent of ocular swab cultures which contained virus (McKrae strain of HSV-1 [1]; [10]): (0%)
Infectious Virus (no. positive/total), ocular surface swabs (McKrae strain of HSV-1 [1]; [11]): 3/12
Percent of ocular swab cultures which contained virus (McKrae strain of HSV-1 [1]; [11]): (25%)
Infectious Virus (no. positive/total), ocular surface swabs (McKrae strain of HSV-1 [1]; [12]): 0/10
Percent of ocular swab cultures which contained virus (McKrae strain of HSV-1 [1]; [12]): (0%)
Infectious Virus (no. positive/total), cornea homogenates (McKrae strain of HSV-1 [2]; [13]): 5/36
Percent of cornea homogenate cultures which contained virus (McKrae strain of HSV-1 [2]; [13]): (14%)
Infectious Virus (no. positive/total), cornea homogenates (McKrae strain of HSV-1 [2]; [14]): 2/10
Percent of cornea homogenate cultures which contained virus (McKrae strain of HSV-1 [2]; [14]): 20%
Infectious Virus (no. positive/total), trigeminal ganglia homogenates (McKrae strain of HSV-1 [2]; [15]): 3/10
Percent of trigeminal ganglia homogenate cultures which contained virus (McKrae strain of HSV-1 [2]; [15]): 30%
Infectious Virus (no. positive/total), cornea homogenates (McKrae strain of HSV-1 [2]; [16]): 2/14
Percent of cornea homogenate cultures which contained virus (McKrae strain of HSV-1 [2]; [16]): 14%
Infectious Virus (no. positive/total), trigeminal ganglia homogenates (McKrae strain of HSV-1 [2]; [17]): 4/14
Percent of trigeminal ganglia homogenate cultures which contained virus (McKrae strain of HSV-1 [2]; [17]): 29%
Infectious Virus (no. positive/total), trigeminal ganglia homogenates (McKrae strain of HSV-1 [2]; [18]): 8/36
Percent of trigeminal ganglia homogenate cultures which contained virus (McKrae strain of HSV-1 [2]; [18]): (22%)
Viral DNA (genome equivalents) (McKrae strain of HSV-1 [3]; ASA prophylaxis prior to heat stress, heat stressed, TG): 4.9 × 10^4 genome equivalents
Viral DNA (genome equivalents) (McKrae strain of HSV-1 [3]; ASA prophylaxis prior to heat stress, heat stressed, cornea): 0.4 × 10^4 genome equivalents
Viral DNA (genome equivalents) (McKrae strain of HSV-1 [3]; ASA prophylaxis schedule, not stressed, TG): 2.3 × 10^2 genome equivalents
Viral DNA (genome equivalents) (McKrae strain of HSV-1 [3]; ASA prophylaxis schedule, not stressed, cornea): <1 × 10^2 genome equivalents
Viral DNA (genome equivalents) (McKrae strain of HSV-1 [3]; Heat stressed, TG, ASA from time of stress): 2.1 × 10^4 genome equivalents
Viral DNA (genome equivalents) (McKrae strain of HSV-1 [3]; Heat stressed, cornea, ASA from time of stress): 0.9 × 10^3 genome equivalents
Viral DNA (genome equivalents) (McKrae strain of HSV-1 [3]; Not stressed, TG, ASA-treated): 1.5 × 10^2 genome equivalents
Viral DNA (genome equivalents) (McKrae strain of HSV-1 [3]; Not stressed, cornea, ASA-treated): <1 × 10^2 genome equivalents

Cc1ccc(-c2cc(C(F)(F)F)nn2-c2ccc(S(N)(=O)=O)cc2)cc1 [celecoxib]
Infectious Virus on the Ocular Surface (mice positive/total) (McKrae strain of HSV-1 [4]; [19]): 0/12
Infectious Virus on the Ocular Surface (mice positive/total) (McKrae strain of HSV-1 [4]; [20]): 0/14
Infectious Virus in the Trigeminal Ganglia (mice positive/total) (McKrae strain of HSV-1 [5]; [19]): 0/12
Infectious Virus in the Trigeminal Ganglia (mice positive/total) (McKrae strain of HSV-1 [5]; [20]): 0/10
Most effective dose in preventing viral recurrence (McKrae strain of HSV-1 [6]): 0.5 mg
